Results taken from patent US20010046497A1, “G-protein coupled receptor and methods” (priority 2000, published 2001).

Assays:
Assay type in all cases: cell-based
SP168 receptor [1] = target: T1, SP168 receptor (Homo sapiens, UniProt Q9H244); assay: FLIPR Ca2+ assay, SP168 co-transfected with Gq/i3 in NIH3T3 cells (agonists); set-up: expressed in transfected cells; host or cells: NIH3T3 cells, co-transfected with Gq/i3; conditions: for EC50: FLIPR, peak Ca2+ increment, SP168 + Gq/i3 transfected cells
Protocol: (§1) In order to identify SP168 receptor ligands the SP168 open reading frame was subcloned into the pcDNA3.1 expression vector under the control of the CMV promoter and transfected into mammalian cells. After allowing two days for receptor expression, the transfected cells were seeded into 96 well plates, loaded with the Ca^2+ sensitive Fluo-3AM dye and challenged with various compounds. The peak increments in Ca^2+ evoked by the test compounds were measured using the Fluorometric Inaging Plate Reader (FLIPR) system. The endogenous ligand of the SP168 receptor was purified from rat spinal cords using a series of chromatography steps and its structure was identified as being ADP by Mass spectroscopy. […] In addition to ADP, other agonists were also identified for SP168.
SP168 receptor cDNA was subdloned into the pcDNA3.1 expression vector (Invitrogen) and transiently co-transfected with chimera G protein Gq/i3 into CHO-DHFR^− (ATCC CRL-9096) cells using lipofectamine (Gibco- BRL). Chimera G protein Gq/i3 was constructed by replacing the C-terminus five amino acid residues of human Gqa with the five amino acid residue of human Gi3a (Conklin et al., Nature, 363, p274-276). pCDNA 3.1 vector DNA was also co-transfected with chimera G protein Gq/i3 as a negative control. The transfected cells were seeded into 96 well plates and incubated overnight at 37° C. in a tissue culture incubator. The growth medium was aspirated and replaced with 100 μl of loading medium (DMEM containing 1% FBS, […] Fluo-3-AM/10% pluronic acid and 2.5 mM Probenecid) and incubated for 1 hour at 37° C. The cells were subsequently washed 3 times with Hank's BSS buffer containing 20 mM HEPES, 2.5 mM Probenecid, and 0.1% BSA using the gentle setting in a Denley cell washer (Denley Instruments). The washed cells were placed in a Fluorometric Imaging Plate Reader (FLIPR) and changes in cellular fluorescence recorded after the addition of various dilutions of tissue extract fractions.
(§2) Pharmacology of SP168—The pharmacological profile of SP168 was fuirther characterized by using the FLIPR and cAMP assays. SP168 was co-transfected with Gq/i3 to NIH3T3 cells, and a variety of nucleotides were screened by the FLIPR assay. […] EC50 for background ATP was about 1600 rLM, which was similar to 2-C1-ATP but was 20 fold higher than ADP. Therefore, even if ATP was included, the order of agonist potency was 2-MeS-ATP=2-MeS-ADP>ADP=ADPPS>ATPyS=ATP.

SP168 receptor [2] = target: T1, SP168 receptor; assay: cAMP assay (inhibition of adenylyl cyclase); set-up: expressed in transfected cells; conditions: adenylyl cyclase / cAMP pathway
Protocol: as §1
The SP168 receptor cDNA was stably transfected into CHO-DHFR cells according standard procedures. The SP168 receptor stable cell line and wild type cell grown on 12-well plates were incubated for 2 hr with […] of medium plus 5 μCi of [3H]adenine/ml. Then 50 μl of Hepes (250 mM, pH 7.5, 50 μM Forskolin, 200 μM IBMX) with the compound to be screened was added to the cells and incubated for 10 minutes at 37 ° C. Incubations were terminated by addition of 0.8 ml of 5% trichloroacetic acid. [^3H]cAMP was purified using Dowex and alumina chromatography as previously described (Harden et al., Mol. Pharmacol. 21:570-580, 1982).

NIH3T3 = assay: FLIPR assay, background response of NIH3T3 cells; conditions: fold higher than ADP
From the text: as §2

T1 sequence (Q9H244 whole entry): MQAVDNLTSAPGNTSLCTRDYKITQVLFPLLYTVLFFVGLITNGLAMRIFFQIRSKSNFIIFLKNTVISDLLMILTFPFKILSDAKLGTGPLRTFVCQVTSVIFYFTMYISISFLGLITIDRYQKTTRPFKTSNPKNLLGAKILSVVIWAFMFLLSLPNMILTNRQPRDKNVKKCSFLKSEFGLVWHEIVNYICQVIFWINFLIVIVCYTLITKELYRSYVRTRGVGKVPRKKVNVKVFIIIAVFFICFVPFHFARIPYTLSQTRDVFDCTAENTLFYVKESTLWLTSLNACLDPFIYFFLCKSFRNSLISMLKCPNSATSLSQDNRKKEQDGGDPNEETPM

Compound | EC50 (SP168 receptor [1]) [nM] | also measured
Nc1ncnc2c1ncn2[C@@H]1O[C@H](COP(=O)(O)OP(=O)(O)O)[C@@H](O)[C@H]1O [ADP, 5′-adenosine diphosphate] | 74 | activation of the SP168 receptor (SP168 receptor [2]): activate the SP168 receptor through inhibition of adenylyl cyclase
Nc1ncnc2c1ncn2[C@@H]1O[C@H](COP(=O)(O)OP(O)(O)=S)[C@@H](O)[C@H]1O [ADPβS] | 89 | –
Nc1ncnc2c1ncn2[C@@H]1O[C@H](COP(=O)(O)OP(=O)(O)OP(=O)(O)O)[C@@H](O)[C@H]1O [ATP] | – | shift of dosage curve by SP168 transfection (SP168 receptor [1]; NIH3T3, FLIPR): did not induce the shift of dosage curve; EC50 of background ATP relative to ADP (NIH3T3): 20 fold
Nc1ncnc2c1ncn2[C@@H]1O[C@H](COP(=O)(O)OP(=O)(O)OP(O)(O)=S)[C@@H](O)[C@H]1O [ATPγS] | 1200 | –

Now from value to molecule, other results behind:

EC50 (SP168 receptor [1]) [nM] | Compound | also measured
470 | Nc1nc(Cl)nc2c1ncn2[C@@H]1O[C@H](COP(=O)(O)OP(=O)(O)OP(=O)(O)O)[C@@H](O)[C@H]1O [2-Cl-ATP] | –
2.3 | CSc1nc(N)c2ncn([C@@H]3O[C@H](COP(=O)(O)OP(=O)(O)O)[C@@H](O)[C@H]3O)c2n1 [2-MeS-ADP] | –
3.4 | CSc1nc(N)c2ncn([C@@H]3O[C@H](COP(=O)(O)OP(=O)(O)OP(=O)(O)O)[C@@H](O)[C@H]3O)c2n1 [2-MeS-ATP] | –
